Laboratory results reported in US10358436B2, “Kinase inhibitors and method of treating cancer” (University Health Network, priority 2010, dated 2019).
Counter-ions that a name gives are not always drawn.

Assays:
[1] = biological target: T1, FLT3 (Homo sapiens (Human), UniProt P36888); assay: FLT3 inhibition assay (Z-Lyte); format: biochemical; settings: read-out: Flt3 IC50 Ranges
[2] = biological target: human PLK4 (Homo sapiens (Human), UniProt O00444); assay: PLK4 inhibition assay (indirect ELISA); format: biochemical; settings: read-out: PLK4 IC50 Ranges
[3] = biological target: T2, Aurora B (Homo sapiens (Human), UniProt Q96GD4); assay: Aurora B inhibition assay (Z-Lyte); format: biochemical; settings: read-out: Aurora B IC50 Ranges
T2 sequence (Q96GD4 whole entry): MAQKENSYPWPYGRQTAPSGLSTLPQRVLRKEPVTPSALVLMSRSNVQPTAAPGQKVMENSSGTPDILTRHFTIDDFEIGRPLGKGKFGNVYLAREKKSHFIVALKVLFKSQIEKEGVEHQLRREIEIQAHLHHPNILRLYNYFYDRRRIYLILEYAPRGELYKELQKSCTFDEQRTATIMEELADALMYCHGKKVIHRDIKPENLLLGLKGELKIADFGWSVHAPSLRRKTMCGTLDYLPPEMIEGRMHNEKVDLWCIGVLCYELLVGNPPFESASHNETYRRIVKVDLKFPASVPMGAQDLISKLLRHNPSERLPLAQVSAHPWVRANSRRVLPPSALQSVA

[4] = biological target: T3, Aurora A (Homo sapiens (Human), UniProt O14965); assay: Aurora A inhibition assay (Z-Lyte); format: biochemical
T3 sequence (O14965 whole entry): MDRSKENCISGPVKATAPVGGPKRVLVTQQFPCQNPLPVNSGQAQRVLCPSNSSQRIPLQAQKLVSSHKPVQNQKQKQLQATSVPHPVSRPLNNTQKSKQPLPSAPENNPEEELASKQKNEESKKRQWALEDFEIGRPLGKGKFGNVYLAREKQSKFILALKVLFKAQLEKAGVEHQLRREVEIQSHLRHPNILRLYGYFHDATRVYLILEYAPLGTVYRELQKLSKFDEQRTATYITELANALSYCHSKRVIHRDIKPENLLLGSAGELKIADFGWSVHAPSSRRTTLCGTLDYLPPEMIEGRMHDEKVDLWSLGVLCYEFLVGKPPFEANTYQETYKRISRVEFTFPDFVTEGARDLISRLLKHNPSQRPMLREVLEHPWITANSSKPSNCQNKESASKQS

[5] = biological target: ALK (Homo sapiens (Human), UniProt Q9UM73); format: biochemical; settings: read-out: % Inhibition @ 0.1 μM, ALK
[6] = biological target: Abl (Y253F) (Homo sapiens (Human), UniProt P00519, Y253F); format: biochemical; settings: read-out: % Inhibition @ 0.1 μM, Abl (Y253F)
[7] = biological target: TRKA (Homo sapiens (Human), UniProt P04629); format: biochemical; settings: read-out: % Inhibition @ 0.1 μM, TrkA
[8] = biological target: FGFR2 (N549H) (Homo sapiens (Human), UniProt P21802, N549H); format: biochemical; settings: read-out: % Inhibition @ 0.1 μM, FGFR2 (N549H)
[9] = biological target: T1, FLT3; settings: read-out: % Inhibition @ 0.1 μM, Flt3
[10] = biological target: Lck (Homo sapiens (Human), UniProt P06239); format: biochemical; settings: read-out: % Inhibition @ 0.1 μM, Lck
[11] = biological target: Ret (V804L) (Homo sapiens (Human), UniProt P07949, V804L); format: biochemical; settings: read-out: % Inhibition @ 0.1 μM, Ret (V804L)
[12] = biological target: FGFR1 (Homo sapiens (Human), UniProt P11362); format: biochemical; settings: read-out: % Inhibition @ 0.1 μM, FGFR1
[13] = biological target: Ros (Homo sapiens (Human), UniProt P08922); format: biochemical; settings: read-out: % Inhibition @ 0.1 μM, Ros
[14] = biological target: Abl (Homo sapiens (Human), UniProt P00519); format: biochemical; settings: read-out: % Inhibition @ 0.1 μM, Abl
[15] = biological target: Arg (Homo sapiens (Human), UniProt P42684); format: biochemical; settings: read-out: % Inhibition @ 0.1 μM, Arg
[16] = biological target: Abl (M351T) (Homo sapiens (Human), UniProt P00519, M351T); format: biochemical; settings: read-out: % Inhibition @ 0.1 μM, Abl (M351T)
[17] = biological target: Ron (Homo sapiens (Human), UniProt Q04912); format: biochemical; settings: read-out: % Inhibition @ 0.1 μM, Ron
[18] = biological target: Abl (H396P) (Homo sapiens (Human), UniProt P00519, H396P); format: biochemical; settings: read-out: % Inhibition @ 0.1 μM, Abl (H396P)
[19] = biological target: FGFR1 (V561M) (Homo sapiens (Human), UniProt P11362, V561M); format: biochemical; settings: read-out: % Inhibition @ 0.1 μM, FGFR1 (V561M)
Sequence of FGFR1 (V561M) (P11362 22-822 V561M): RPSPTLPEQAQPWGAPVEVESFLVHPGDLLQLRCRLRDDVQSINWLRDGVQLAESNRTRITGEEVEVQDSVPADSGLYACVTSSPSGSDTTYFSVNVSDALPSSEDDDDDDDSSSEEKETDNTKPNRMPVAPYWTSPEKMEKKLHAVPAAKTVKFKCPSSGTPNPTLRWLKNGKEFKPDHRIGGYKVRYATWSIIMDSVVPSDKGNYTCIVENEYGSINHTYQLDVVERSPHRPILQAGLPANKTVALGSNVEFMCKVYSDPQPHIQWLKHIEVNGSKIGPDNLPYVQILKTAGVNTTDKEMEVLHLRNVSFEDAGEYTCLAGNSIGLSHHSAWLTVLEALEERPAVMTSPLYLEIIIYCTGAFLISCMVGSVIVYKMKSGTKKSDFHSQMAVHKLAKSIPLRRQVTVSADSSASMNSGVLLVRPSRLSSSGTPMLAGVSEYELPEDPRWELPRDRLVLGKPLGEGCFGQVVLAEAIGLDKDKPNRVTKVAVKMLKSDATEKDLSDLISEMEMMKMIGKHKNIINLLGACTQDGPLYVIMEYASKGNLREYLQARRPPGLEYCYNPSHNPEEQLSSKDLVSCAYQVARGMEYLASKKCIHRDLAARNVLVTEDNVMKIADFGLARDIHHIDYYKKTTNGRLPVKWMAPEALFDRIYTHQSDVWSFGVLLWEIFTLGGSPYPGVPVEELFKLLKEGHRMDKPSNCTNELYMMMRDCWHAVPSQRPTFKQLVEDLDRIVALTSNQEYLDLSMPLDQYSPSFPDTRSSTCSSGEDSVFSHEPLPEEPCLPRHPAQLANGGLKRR

[20] = biological target: ARK5 (Homo sapiens (Human), UniProt O60285); format: biochemical; settings: read-out: % Inhibition @ 0.1 μM, ARK5
Sequence of ARK5 (O60285 whole entry): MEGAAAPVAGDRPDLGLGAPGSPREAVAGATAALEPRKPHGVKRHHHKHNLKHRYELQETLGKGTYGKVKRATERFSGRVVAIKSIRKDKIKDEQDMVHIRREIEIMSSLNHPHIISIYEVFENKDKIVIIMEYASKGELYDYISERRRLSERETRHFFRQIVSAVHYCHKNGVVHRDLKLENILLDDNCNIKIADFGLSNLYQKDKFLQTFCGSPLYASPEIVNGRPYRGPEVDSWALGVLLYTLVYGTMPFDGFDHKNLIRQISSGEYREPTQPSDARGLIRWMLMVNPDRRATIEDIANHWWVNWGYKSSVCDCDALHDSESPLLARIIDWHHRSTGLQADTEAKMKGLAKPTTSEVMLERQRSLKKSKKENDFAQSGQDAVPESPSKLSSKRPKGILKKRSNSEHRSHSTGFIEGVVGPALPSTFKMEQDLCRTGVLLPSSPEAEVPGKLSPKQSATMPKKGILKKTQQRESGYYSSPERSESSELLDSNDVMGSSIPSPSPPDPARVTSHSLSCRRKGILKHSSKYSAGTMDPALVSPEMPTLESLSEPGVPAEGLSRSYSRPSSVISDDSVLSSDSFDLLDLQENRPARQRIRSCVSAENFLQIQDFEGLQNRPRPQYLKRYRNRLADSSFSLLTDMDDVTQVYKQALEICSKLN

[21] = biological target: EphA1 (Homo sapiens (Human), UniProt P21709); format: biochemical; settings: read-out: % Inhibition @ 0.1 μM, EphA1
[22] = biological target: Itk (Homo sapiens (Human), UniProt Q08881); format: biochemical; settings: read-out: % Inhibition @ 0.1 μM, Itk
[23] = biological target: T3, Aurora A; format: biochemical; settings: read-out: % Inhibition @ 0.1 μM, Aurora-A
[24] = biological target: FGFR3 (Homo sapiens (Human), UniProt P22607); format: biochemical; settings: read-out: % Inhibition @ 0.1 μM, FGFR3
[25] = biological target: Abl (m) (Mus musculus (Mouse), UniProt P00520); format: biochemical; settings: read-out: % Inhibition @ 0.1 μM, Abl (m)
[26] = biological target: MuSK (Homo sapiens (Human), UniProt O15146); format: biochemical; settings: read-out: % Inhibition @ 0.1 μM, MuSK
[27] = biological target: Tie2 (R849W) (Homo sapiens (Human), UniProt Q02763, R849W); format: biochemical; settings: read-out: % Inhibition @ 0.1 μM, Tie2 (R849W)
Sequence of Tie2 (R849W) (Q02763 23-1124 R849W): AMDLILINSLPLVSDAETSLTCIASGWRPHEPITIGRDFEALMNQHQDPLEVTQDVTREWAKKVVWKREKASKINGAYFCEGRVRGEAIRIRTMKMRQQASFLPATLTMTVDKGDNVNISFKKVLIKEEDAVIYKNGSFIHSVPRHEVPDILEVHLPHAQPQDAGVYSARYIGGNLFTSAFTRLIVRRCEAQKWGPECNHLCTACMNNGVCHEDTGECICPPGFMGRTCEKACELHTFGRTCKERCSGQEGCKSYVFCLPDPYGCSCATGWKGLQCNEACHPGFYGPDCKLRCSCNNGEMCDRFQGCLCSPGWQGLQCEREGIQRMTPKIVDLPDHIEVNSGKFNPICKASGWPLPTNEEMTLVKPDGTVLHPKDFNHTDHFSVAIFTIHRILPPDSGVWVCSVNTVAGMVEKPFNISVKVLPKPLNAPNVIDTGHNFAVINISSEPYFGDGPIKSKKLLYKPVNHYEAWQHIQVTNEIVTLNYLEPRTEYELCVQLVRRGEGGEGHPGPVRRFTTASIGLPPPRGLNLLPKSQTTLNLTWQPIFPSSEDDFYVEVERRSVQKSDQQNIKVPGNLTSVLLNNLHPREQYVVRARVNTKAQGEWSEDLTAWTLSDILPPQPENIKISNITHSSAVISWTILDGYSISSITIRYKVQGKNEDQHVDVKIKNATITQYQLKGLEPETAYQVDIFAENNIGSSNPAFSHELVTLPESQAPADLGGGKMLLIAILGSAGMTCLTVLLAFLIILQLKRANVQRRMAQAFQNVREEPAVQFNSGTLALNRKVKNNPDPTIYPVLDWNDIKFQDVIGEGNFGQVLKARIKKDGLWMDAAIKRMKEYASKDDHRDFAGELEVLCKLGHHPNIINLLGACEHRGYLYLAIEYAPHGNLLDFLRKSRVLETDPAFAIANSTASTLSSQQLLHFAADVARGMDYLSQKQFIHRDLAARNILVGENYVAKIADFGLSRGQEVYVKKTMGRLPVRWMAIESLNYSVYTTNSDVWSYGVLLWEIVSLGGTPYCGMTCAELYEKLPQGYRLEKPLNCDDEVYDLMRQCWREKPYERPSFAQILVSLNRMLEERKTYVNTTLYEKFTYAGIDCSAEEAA

[28] = biological target: Lck activated (Homo sapiens (Human), UniProt P06239); format: biochemical; settings: read-out: % Inhibition @ 0.1 μM, Lck activated
[29] = biological target: GCK (Homo sapiens (Human), UniProt Q12851); format: biochemical; settings: read-out: % Inhibition @ 0.1 μM, GCK
[30] = biological target: FGFR2 (Homo sapiens (Human), UniProt P21802); format: biochemical; settings: read-out: % Inhibition @ 0.1 μM, FGFR2
[31] = biological target: Tie2 (Y897S) (Homo sapiens (Human), UniProt Q02763, Y897S); format: biochemical; settings: read-out: % Inhibition @ 0.1 μM, Tie2 (Y897S)
Sequence of Tie2 (Y897S) (Q02763 23-1124 Y897S): as the sequence (Q02763 23-1124 R849W) above, with W827R, Y875S counted along it

[32] = biological target: Bmx (Homo sapiens (Human), UniProt P51813); format: biochemical; settings: read-out: % Inhibition @ 0.1 μM, Bmx
Sequence of Bmx (P51813 whole entry): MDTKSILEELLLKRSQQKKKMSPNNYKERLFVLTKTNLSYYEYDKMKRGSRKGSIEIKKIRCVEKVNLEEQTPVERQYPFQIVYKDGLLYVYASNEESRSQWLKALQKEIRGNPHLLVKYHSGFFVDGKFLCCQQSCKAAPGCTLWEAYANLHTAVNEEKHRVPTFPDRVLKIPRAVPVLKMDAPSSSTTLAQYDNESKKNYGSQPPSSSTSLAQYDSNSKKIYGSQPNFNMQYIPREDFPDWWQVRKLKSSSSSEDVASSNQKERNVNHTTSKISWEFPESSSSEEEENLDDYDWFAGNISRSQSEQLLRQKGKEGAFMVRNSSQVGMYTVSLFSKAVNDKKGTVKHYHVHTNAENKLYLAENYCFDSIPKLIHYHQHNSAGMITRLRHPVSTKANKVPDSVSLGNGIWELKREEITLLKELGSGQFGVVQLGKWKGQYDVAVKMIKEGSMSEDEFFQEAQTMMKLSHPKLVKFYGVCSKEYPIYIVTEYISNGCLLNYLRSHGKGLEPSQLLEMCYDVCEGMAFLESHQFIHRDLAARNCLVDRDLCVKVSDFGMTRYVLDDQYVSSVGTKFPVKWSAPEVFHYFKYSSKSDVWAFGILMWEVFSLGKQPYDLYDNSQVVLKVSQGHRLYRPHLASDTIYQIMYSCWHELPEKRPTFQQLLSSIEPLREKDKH

[33] = biological target: Arg (m) (Mus musculus (Mouse), UniProt Q4JIM5); format: biochemical; settings: read-out: % Inhibition @ 0.1 μM, Arg (m)
[34] = biological target: T2, Aurora B; settings: read-out: % Inhibition @ 0.1 μM, Aurora-B
[35] = biological target: IRAK1 (Homo sapiens (Human), UniProt P51617); format: biochemical; settings: read-out: % Inhibition @ 0.1 μM, IRAK1
[36] = biological target: Tie2 (Homo sapiens (Human), UniProt Q02763); format: biochemical; settings: read-out: % Inhibition @ 0.1 μM, Tie2
Sequence of Tie2 (Q02763 23-1124): as the sequence (Q02763 23-1124 R849W) above, with W827R counted along it

[37] = biological target: Abl (T315I) (Homo sapiens (Human), UniProt P00519, T315I); format: biochemical; settings: read-out: % Inhibition @ 0.1 μM, Abl (T315I)
[38] = biological target: Abl (Q252H) (Homo sapiens (Human), UniProt P00519, Q252H); format: biochemical; settings: read-out: % Inhibition @ 0.1 μM, Abl (Q252H)
[39] = biological target: EphB1 (Homo sapiens (Human), UniProt P54762); format: biochemical; settings: read-out: % Inhibition @ 0.1 μM, EphB1

T1 sequence (P36888 27-993): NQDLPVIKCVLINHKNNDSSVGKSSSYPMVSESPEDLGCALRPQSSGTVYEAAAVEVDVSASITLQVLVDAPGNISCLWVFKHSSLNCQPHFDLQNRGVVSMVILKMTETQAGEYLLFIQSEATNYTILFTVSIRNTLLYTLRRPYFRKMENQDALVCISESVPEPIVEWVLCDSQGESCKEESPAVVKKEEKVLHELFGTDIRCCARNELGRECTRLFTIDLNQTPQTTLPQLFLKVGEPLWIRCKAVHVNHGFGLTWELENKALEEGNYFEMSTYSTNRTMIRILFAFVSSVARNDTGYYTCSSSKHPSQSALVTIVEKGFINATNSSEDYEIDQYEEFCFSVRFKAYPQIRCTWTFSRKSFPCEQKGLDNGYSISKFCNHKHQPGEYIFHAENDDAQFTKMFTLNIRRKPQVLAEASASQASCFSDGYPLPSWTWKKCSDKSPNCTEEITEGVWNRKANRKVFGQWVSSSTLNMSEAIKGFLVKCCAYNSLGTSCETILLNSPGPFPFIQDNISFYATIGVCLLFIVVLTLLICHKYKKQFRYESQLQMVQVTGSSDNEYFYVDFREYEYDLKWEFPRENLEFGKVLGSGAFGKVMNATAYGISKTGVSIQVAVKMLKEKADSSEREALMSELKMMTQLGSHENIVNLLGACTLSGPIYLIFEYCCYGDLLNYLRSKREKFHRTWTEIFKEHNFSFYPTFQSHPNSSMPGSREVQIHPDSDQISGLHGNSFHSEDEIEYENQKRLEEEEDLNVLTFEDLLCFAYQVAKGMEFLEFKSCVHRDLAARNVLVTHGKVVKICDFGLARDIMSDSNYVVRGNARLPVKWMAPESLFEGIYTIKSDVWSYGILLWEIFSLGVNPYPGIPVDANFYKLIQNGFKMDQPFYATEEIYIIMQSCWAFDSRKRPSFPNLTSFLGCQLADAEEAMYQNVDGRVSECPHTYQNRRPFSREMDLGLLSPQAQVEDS

IC50 [1] | IC50 [2] | IC50 [3] | inhibition at 1 µM [4] | Structure (SMILES) | inhibition at 0.1 µM [5] | inhibition at 0.1 µM [6] | inhibition at 0.1 µM [7] | inhibition at 0.1 µM [8] | inhibition at 0.1 µM [10] | inhibition at 0.1 µM [11] | inhibition at 0.1 µM [12] | inhibition at 0.1 µM [13] | inhibition at 0.1 µM [14] | inhibition at 0.1 µM [15] | inhibition at 0.1 µM [16] | inhibition at 0.1 µM [17] | inhibition at 0.1 µM [18] | inhibition at 0.1 µM [19] | inhibition at 0.1 µM [20] | inhibition at 0.1 µM [21] | other results
> 1000 nM | < 100 nM | > 1000 nM | < 50% | COc1ccc2c(c1)[C@]1(C[C@H]1c1ccc3c(-c4cccc(C(=O)N5CCN(C)CC5)c4)n[nH]c3c1)C(=O)N2 (relative stereo) [Example A149, (1R*,2S*)-5′-methoxy-2-(3-(3-(4-methylpiperazine-1-carbonyl)phenyl)-1H-indazol-6-yl)spiro[cyclopropane-1,3′-indolin]-2′-one 2,2,2-trifluoroacetate] | – | – | – | – | – | – | – | – | – | – | – | – | – | – | – | – | –
– | – | – | – | COc1ccc2c(c1)[C@]1(C[C@H]1c1ccc3c(-c4ccc(N5CCN(C)CC5)cc4)n[nH]c3c1)C(=O)N2 [Example A39, (1R,2S)-5′-methoxy-2-(3-(4-(4-methylpiperazin-1-yl)phenyl)-1H-indazol-6-yl)spiro[cyclopropane-1,3′-indolin]-2′-one hydrochloride] | 20% | 43% | 93% | 38% | -3% | 24% | 10% | 17% | 68% | 61% | 77% | 3% | 77% | 18% | 23% | 17% | inhibition at 0.1 µM [9]: 2%; inhibition at 0.1 µM [22]: 9%; inhibition at 0.1 µM [23]: 70%; inhibition at 0.1 µM [24]: 60%; inhibition at 0.1 µM [25]: 82%; inhibition at 0.1 µM [26]: 72%; inhibition at 0.1 µM [27]: 38%; inhibition at 0.1 µM [28]: 62%; inhibition at 0.1 µM [29]: 16%; inhibition at 0.1 µM [30]: 34%; inhibition at 0.1 µM [31]: 40%; inhibition at 0.1 µM [32]: 35%; inhibition at 0.1 µM [33]: 58%; inhibition at 0.1 µM [34]: 102%; inhibition at 0.1 µM [35]: 49%; inhibition at 0.1 µM [36]: 32%; inhibition at 0.1 µM [37]: 90%; inhibition at 0.1 µM [38]: 59%; inhibition at 0.1 µM [39]: 15%
100 to 1000 nM | < 100 nM | 100 to 1000 nM | > 50% | O=C1Nc2ccccc2[C@]12C[C@H]2c1ccc2c(-c3ccc(CN4CCOCC4)cc3)n[nH]c2c1 (relative stereo) [Example A154, (1R*,2S*)-2-(3-(4-(morpholinomethyl)phenyl)-1H-indazol-6-yl)spiro[cyclopropane-1,3′-indolin]-2′-one 2,2,2-trifluoroacetate] | – | – | – | – | – | – | – | – | – | – | – | – | – | – | – | – | –

Structure (SMILES) | IC50 [1] | IC50 [2] | IC50 [3] | inhibition at 1 µM [4] | inhibition at 0.1 µM [5] | inhibition at 0.1 µM [6] | inhibition at 0.1 µM [7] | inhibition at 0.1 µM [8] | inhibition at 0.1 µM [10] | inhibition at 0.1 µM [11] | inhibition at 0.1 µM [12] | inhibition at 0.1 µM [13] | inhibition at 0.1 µM [14] | inhibition at 0.1 µM [15] | inhibition at 0.1 µM [16] | inhibition at 0.1 µM [17] | inhibition at 0.1 µM [18] | inhibition at 0.1 µM [19] | inhibition at 0.1 µM [20] | inhibition at 0.1 µM [21] | other results
COc1ccc2c(c1)[C@]1(C[C@H]1c1ccc3c(/C=C/c4ccc(CN5CCOCC5)cc4)n[nH]c3c1)C(=O)N2 [Example A42, (1R,2S)-(E)-5′-methoxy-2-(3-(4-(morpholinomethyl)styryl)-1H-indazol-6-yl)spiro[cyclopropane-1,3′-indolin]-2′-one hydrochloride] | – | – | – | > 50% | 64% | 75% | 100% | 87% | 77% | 60% | […] | 93% | 77% | 89% | 91% | 62% | 93% | 91% | 86% | […] | inhibition at 0.1 µM [22]: 82%; inhibition at 0.1 µM [23]: 100%; inhibition at 0.1 µM [24]: 90%; inhibition at 0.1 µM [25]: 92%; inhibition at 0.1 µM [26]: 90%; inhibition at 0.1 µM [27]: 83%; inhibition at 0.1 µM [28]: 90%; inhibition at 0.1 µM [29]: 80%; inhibition at 0.1 µM [30]: 88%; inhibition at 0.1 µM [31]: 92%; inhibition at 0.1 µM [32]: 92%; inhibition at 0.1 µM [33]: 90%; inhibition at 0.1 µM [35]: 52%; inhibition at 0.1 µM [36]: 98%; inhibition at 0.1 µM [37]: 98%; inhibition at 0.1 µM [38]: 83%
